These results are taken from US9855249B2, “Isoxazole compounds and methods for the treatment of cystic fibrosis” (FLATLEY DISCOVERY LAB, LLC, priority 2014, dated 2018).

This assay deals with CFTR mediated chloride current in Primary CF airway epithelial cells. Briefly: Equivalent current assay in primary CF airway epithelial cells (NAUC). Type of assay: cell-based. Particulars: 24 h treatment, stimulated with forskolin and VX770, normalized to positive control 3 μM VX809. As for the experimental part: Primary CF airway epithelial cells were obtained from the UNC Cystic Fibrosis Tissue Procurement and Cell Culture Core. The cells are grown at 37° C. in a Heracell 150i incubator using growth media (BEGM, Fischer). Cells were then transferred to differentiation media (ALI, UNC) for a minimum of 4 weeks on coated Costar snapwells. Two days before the Ussing assay the mucus on the apical surface of the cells was aspirated after incubating with 200 μL of differentiation Media for at least thirty (30) minutes. One day before the Ussing assay test compounds were added to the basolateral surface of the cells at various test concentrations dissolved in DMSO. Duplicate wells were prepared giving a n=3 or n=4 protocol.
Cells were treated for 24 hours with various combinations and concentrations of the test articles, reference standard (3 μM VX809, positive control). Compounds stock solutions were prepared in DMSO and diluted 1/1000 into ALI media to their final assay concentration. Cells were treated with combination solutions (2 mL of each dilution) and incubated at 37° C. for 24 h.
For the equivalent current assay, cells on four Transwell (24-well) plates were treated. Each Transwell plate was filled with 200 μl of HBS on the apical surface and 2 ml on the basolateral surface. Plates were placed horizontally in a heated mount at 37° C., and equilibrated for several minutes. Resting current was measured for 15 min and then blocked by the apical addition of 5 μM benzamil. After 20 min, 10 μM forskolin and 1 μM VX770 were added to both the apical and basolateral side to stimulate CFTR. An increase in chloride current is seen as an upward deflection of the trace. After another 30 min, CFTR-172 (a CFTR inhibitor, 2 μM) and/or bumetanide (20 μM) was added to block CFTR mediated chloride current.
The raw data, current vs. time for the Ussing chamber (sampling interval: 10 s) and voltage vs. time and resistance vs. time for the equivalent current assay (sampling interval: 5 minutes) were transferred to Excel (Microsoft Office Professional, version 14.0.7106.5003) for analysis. CFTR specific current was measured as the average amplitude of the increase in current elicited upon addition forskolin and ending upon addition of the CFTR channel specific blocker CFTR-172. This average is equivalent to the sum of the average forskolin activated and the average VX770-potentiated currents. The average current measured in vehicle (0.1% DMSO) treated cells, Iv, was subtracted from the current for the test article, ITA, or from the corrector reference standard VX809 (3 μM ISTD. For replicate measurements, the average vehicle subtracted response for the test article, was normalized to the average vehicle subtracted […] response of the reference corrector VX809 (3 μM). INSC=(ITA−IV)(ave)/(ISTD−IV)(ave) (Equation 1)
A second endpoint, for the equivalent current assay, evaluated was NAUC, the normalized area under the curve (AUC) measuring the response after addition of forskolin and VX770 to the time point right before the addition of the CFTR inhibitor. The AUC is effectively the average response multiplied by the duration of the response. The AUC of the test article, AUCTA was then corrected by subtracting the average vehicle response, AUCV,ave over the same time range, and normalized as for the inhibitor-sensitive current to the difference of the corrector reference standard VX809 (3 μM VX809r,ave and the vehicle response: NAUCTA=[AUCTA−AUCV,ave]/[AUCVx809r,ave−AUCV,ave](Equation 2).
The normalized value for DMSO is 0.0 and for VX-809 alone is 1.0. Combinations of compounds with VX-809 that give normalized values greater than 1.0 show activity in the combination assay. A value of 2 means the test compound doubles the effect to VX-809 alone.
Experiments were run with a minimum of n=4 replicates per concentration. […]

For `O=C(NC[C@H]1CCCO1)c1cc(-c2ccc(F)cc2)on1` [Example 30], the “NAUC (normalized area under the curve), Test Conc 3 uM” value is recorded as “++ (NAUC “++” refers to an observed NAUC 170-140% of positive control)” and the “NAUC (normalized area under the curve), Test Conc 10 uM” value is “++ (NAUC “++” refers to an observed NAUC 170-140% of positive control)”.

Turning to `CC(C)CCNC(=O)c1cc(-c2ccc(F)cc2)on1` [Example 31], the “NAUC (normalized area under the curve), Test Conc 3 uM” value is listed as “++ (NAUC “++” refers to an observed NAUC 170-140% of positive control)” and the “NAUC (normalized area under the curve), Test Conc 10 uM” value is “++ (NAUC “++” refers to an observed NAUC 170-140% of positive control)”.

Turning to `O=C(NCC(c1ccccc1)c1ccccc1)c1cc(-c2ccc(F)cc2)on1` [Example 32], the “NAUC (normalized area under the curve), Test Conc 3 uM” value was “+ (NAUC “+” refers to an observed NAUC <140% of positive control)” and the “NAUC (normalized area under the curve), Test Conc 10 uM” value is listed as “+ (NAUC “+” refers to an observed NAUC <140% of positive control)”.

For `O=C(NCC1CCCCC1)c1cc(-c2ccc(F)cc2)on1` [Example 33], the “NAUC (normalized area under the curve), Test Conc 3 uM” value was “+ (NAUC “+” refers to an observed NAUC <140% of positive control)” and the “NAUC (normalized area under the curve), Test Conc 10 uM” value is “+ (NAUC “+” refers to an observed NAUC <140% of positive control)”.

For `O=C(NCCOc1ccccc1)c1cc(-c2ccc(F)cc2)on1` [Example 34], the “NAUC (normalized area under the curve), Test Conc 3 uM” value is given as “+ (NAUC “+” refers to an observed NAUC <140% of positive control)” and the “NAUC (normalized area under the curve), Test Conc 10 uM” value is “+ (NAUC “+” refers to an observed NAUC <140% of positive control)”.

As to `O=C(NCC(F)(F)F)c1cc(-c2ccc(F)cc2)on1` [Example 35], the “NAUC (normalized area under the curve), Test Conc 3 uM” value is “++ (NAUC “++” refers to an observed NAUC 170-140% of positive control)” and the “NAUC (normalized area under the curve), Test Conc 10 uM” value is “+++ (NAUC “+++” refers to an observed NAUC >170% of positive control)”.

In the case of `O=C(NCC1CC1)c1cc(-c2ccc(F)cc2)on1` [Example 36, N-(cyclopropylmethyl)-5-(4-fluorophenyl)isoxazole-3-carboxamide], the “NAUC (normalized area under the curve), Test Conc 3 uM” value is “++ (NAUC “++” refers to an observed NAUC 170-140% of positive control)” and the “NAUC (normalized area under the curve), Test Conc 10 uM” value was “+++ (NAUC “+++” refers to an observed NAUC >170% of positive control)”.

Take `O=C(NCCN1CCOCC1)c1cc(-c2ccc(F)cc2)on1` [Example 37, 5-(4-fluorophenyl)-N-(2-morpholinoethyl)isoxazole-3-carboxamide]: the “NAUC (normalized area under the curve), Test Conc 3 uM” value is reported as “+ (NAUC “+” refers to an observed NAUC <140% of positive control)” and the “NAUC (normalized area under the curve), Test Conc 10 uM” value is on record as “++ (NAUC “++” refers to an observed NAUC 170-140% of positive control)”.

In the case of `O=C(NCCCCC(=O)N1CCC1)c1cc(-c2ccccc2)on1` [Example 38, N-(5-(azetidin-1-yl)-5-oxopentyl)-5-phenylisoxazole-3-carboxamide], the “NAUC (normalized area under the curve), Test Conc 3 uM” value was “+++ (NAUC “+++” refers to an observed NAUC >170% of positive control)” and the “NAUC (normalized area under the curve), Test Conc 10 uM” value is reported as “+++ (NAUC “+++” refers to an observed NAUC >170% of positive control)”.

On to `CN1CCN(C(=O)CCCCNC(=O)c2cc(-c3ccccc3)on2)CC1` [Example 43, N-(5-(4-methylpiperazin-1-yl)-5-oxopentyl)-5-phenylisoxazole-3-carboxamide], for which the “NAUC (normalized area under the curve), Test Conc 3 uM” value is reported as “+++ (NAUC “+++” refers to an observed NAUC >170% of positive control)” and the “NAUC (normalized area under the curve), Test Conc 10 uM” value is “+++ (NAUC “+++” refers to an observed NAUC >170% of positive control)”.

Turning to `O=C(NCCC(=O)N1CCC1)c1cc(-c2ccccc2)on1` [Example 44, N-(3-(azetidin-1-yl)-3-oxopropyl)-5-phenylisoxazole-3-carboxamide], the “NAUC (normalized area under the curve), Test Conc 3 uM” value is “+++ (NAUC “+++” refers to an observed NAUC >170% of positive control)” and the “NAUC (normalized area under the curve), Test Conc 10 uM” value was “+++ (NAUC “+++” refers to an observed NAUC >170% of positive control)”.

On to `CN1CCN(C(=O)CCNC(=O)c2cc(-c3ccccc3)on2)CC1` [Example 48], for which the “NAUC (normalized area under the curve), Test Conc 3 uM” value is reported as “+++ (NAUC “+++” refers to an observed NAUC >170% of positive control)” and the “NAUC (normalized area under the curve), Test Conc 10 uM” value was “+++ (NAUC “+++” refers to an observed NAUC >170% of positive control)”.

Take `O=C(NCCC(=O)N1CCC1)c1cc(-c2ccc(F)cc2)no1` [Example 51, N-(3-(azetidin-1-yl)-3-oxopropyl)-3-(4-fluorophenyl)isoxazole-5-carboxamide]: the “NAUC (normalized area under the curve), Test Conc 3 uM” value is listed as “++ (NAUC “++” refers to an observed NAUC 170-140% of positive control)” and the “NAUC (normalized area under the curve), Test Conc 10 uM” value is recorded as “+++ (NAUC “+++” refers to an observed NAUC >170% of positive control)”.

In the case of `CN1CCN(C(=O)CCNC(=O)c2cc(-c3ccc(F)cc3)no2)CC1` [Example 52, 3-(4-fluorophenyl)-N-(3-(4-methylpiperazin-1-yl)-3-oxopropyl)isoxazole-5-carboxamide], the “NAUC (normalized area under the curve), Test Conc 3 uM” value is recorded as “++ (NAUC “++” refers to an observed NAUC 170-140% of positive control)” and the “NAUC (normalized area under the curve), Test Conc 10 uM” value is given as “+++ (NAUC “+++” refers to an observed NAUC >170% of positive control)”.

Regarding `O=C(NCCCCC(=O)N1CCC1)c1cc(-c2ccc(F)cc2)no1` [Example 53, N-(5-(azetidin-1-yl)-5-oxopentyl)-3-(4-fluorophenyl)isoxazole-5-carboxamide], the “NAUC (normalized area under the curve), Test Conc 3 uM” value is “++ (NAUC “++” refers to an observed NAUC 170-140% of positive control)” and the “NAUC (normalized area under the curve), Test Conc 10 uM” value is “+++ (NAUC “+++” refers to an observed NAUC >170% of positive control)”.

Turning to `CN1CCN(C(=O)CCCCNC(=O)c2cc(-c3ccc(F)cc3)no2)CC1` [Example 54, 3-(4-fluorophenyl)-N-(5-(4-methylpiperazin-1-yl)-5-oxopentyl)isoxazole-5-carboxamide], the “NAUC (normalized area under the curve), Test Conc 3 uM” value was “++ (NAUC “++” refers to an observed NAUC 170-140% of positive control)” and the “NAUC (normalized area under the curve), Test Conc 10 uM” value is recorded as “+++ (NAUC “+++” refers to an observed NAUC >170% of positive control)”.

As to `O=C(NCCCCC(=O)N1CCC1)c1cc(-c2ccccc2)no1` [Example 55, N-(5-(azetidin-1-yl)-5-oxopentyl)-3-phenylisoxazole-5-carboxamide], the “NAUC (normalized area under the curve), Test Conc 3 uM” value is given as “++ (NAUC “++” refers to an observed NAUC 170-140% of positive control)” and the “NAUC (normalized area under the curve), Test Conc 10 uM” value was “+++ (NAUC “+++” refers to an observed NAUC >170% of positive control)”.

With `CN1CCN(C(=O)CCCCNC(=O)c2cc(-c3ccccc3)no2)CC1` [Example 59], the “NAUC (normalized area under the curve), Test Conc 3 uM” value is “+++ (NAUC “+++” refers to an observed NAUC >170% of positive control)” and the “NAUC (normalized area under the curve), Test Conc 10 uM” value is “+++ (NAUC “+++” refers to an observed NAUC >170% of positive control)”.

Take `O=C(NCCC(=O)N1CCC1)c1cc(-c2ccccc2)no1` [Example 60, N-(3-(azetidin-1-yl)-3-oxopropyl)-3-phenylisoxazole-5-carboxamide]: the “NAUC (normalized area under the curve), Test Conc 3 uM” value is given as “+++ (NAUC “+++” refers to an observed NAUC >170% of positive control)” and the “NAUC (normalized area under the curve), Test Conc 10 uM” value is listed as “+++ (NAUC “+++” refers to an observed NAUC >170% of positive control)”.

`CN1CCN(C(=O)CCNC(=O)c2cc(-c3ccccc3)no2)CC1` [Example 63]: the “NAUC (normalized area under the curve), Test Conc 3 uM” value is given as “+++ (NAUC “+++” refers to an observed NAUC >170% of positive control)” and the “NAUC (normalized area under the curve), Test Conc 10 uM” value is “+++ (NAUC “+++” refers to an observed NAUC >170% of positive control)”.
